# Experiments:
# DDP4 enzyme = target: T1, DDP4 enzyme (Homo sapiens, UniProt P27487); test: in vitro inhibiting activity against DDP4 enzyme (Caco-2 cell lysis solution, H-Gly-Pro-AMC substrate); type: biochemical; conditions: for inhibition rate against DDP4: 100 μM; for inhibition at 100 µM: read-out: inhibition rate against DDP4
# T1 construct: cell lysis solution of human colon cancer cell line Caco-2 as DDP4 enzyme source; endogenous in cells; host or cells: Caco-2 (human colon cancer cell line) lysate
# Experimental: Experimental method: (1) determination of inhibiting activity of Compound I and Compound II against DDP4 enzyme in vitro: cell lysis solution of human colon cancer cell line Caco-2 as DDP4 enzyme source (Thomas, L., et al, 2008, JPET). In a drug screening system of 96-well plate, 100 μL/well, the final concentration of H-Gly-Pro-AMC substrate (AnaSpec) was 244 μM, in which different concentrations of test compounds were added for incubation at 37° C. for 30 mins Fluorescence signals were detected at excitation wavelength 380 nm/emission wavelengths 460 nm Inhibition rates (%) on the enzyme of test samples against DDP4 were calculated according to fluorescence absorption value obtained by detection. The inhibition rate (%) is calculated according to the following formula: Inhibition rate (%)=(RFU blank−RFU compound)/(RFU blank−RFU negative control)*100%
# RFU compound, RFU blank, and RFU negative control represent the difference of fluorescence values at 30 mins and at 0 min from a compound well, a blank well, and a negative control well free of enzyme; (2) effect of Compound I and Compound II for acute glucose tolerance in mice: the OGTT experimental method was the same to Example 5, the mice were divided into control group; calibration group; Compound I lower dose group (100 mg/kg); Compound I higher dose group (200 mg/kg); Compound II lower dose group (100 mg/kg); Compound II higher dose group (200 mg/kg); and positive drug group (Sitagliptin 10 mg/kg, Merck Company, USA).
# hDGAT1 = target: T2, hDGAT1 (Homo sapiens, UniProt O75907); test: inhibitory activity against hDGAT1 (CPM fluorescence); type: biochemical; conditions: for inhibition at 10 µM: read-out: Inhibition rate (%) (10 μM) against hDGAT1; for inhibition at 50 µM: read-out: Inhibition rate (%) (50 μM) against hDGAT1
# T2 construct: made in house; host or cells: insect cells
# T2 sequence (O75907 1-488): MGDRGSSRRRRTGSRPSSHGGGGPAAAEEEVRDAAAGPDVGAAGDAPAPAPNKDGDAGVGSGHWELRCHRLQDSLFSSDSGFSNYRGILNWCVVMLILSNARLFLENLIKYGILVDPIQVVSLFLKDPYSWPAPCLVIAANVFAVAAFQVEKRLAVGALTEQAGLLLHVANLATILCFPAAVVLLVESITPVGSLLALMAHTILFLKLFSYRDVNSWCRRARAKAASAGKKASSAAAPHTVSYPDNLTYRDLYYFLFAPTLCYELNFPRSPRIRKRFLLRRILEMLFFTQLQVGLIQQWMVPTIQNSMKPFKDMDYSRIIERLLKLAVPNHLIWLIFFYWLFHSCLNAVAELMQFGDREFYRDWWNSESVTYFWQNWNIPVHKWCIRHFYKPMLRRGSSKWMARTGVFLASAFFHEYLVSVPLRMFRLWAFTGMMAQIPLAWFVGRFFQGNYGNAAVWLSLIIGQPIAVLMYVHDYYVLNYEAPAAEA
# Experimental: Experimental method: (1) the effect of the extract of Glechoma longituba (Nakai) Kupr., LQC-H-1, on serum triglyceride level was evaluated in acute hypertriglyceridemic mouse model; 6-week old male C57BL/KsJ mice (Shanghai Slac Laboratory Animal Company), 8 for each group, weight of 20±2 g, were fed according to SPF grade operation procedure and fasted overnight for 16 hours prior to experiment. Compounds of different concentrations were intragastric administrated to each administration group of mice, respectively. Equal volume of water was given to control group and blank group of mice. 30 mins later, 2 g/kg olive oil was intragastric administrated to administration group and control group of mice, while equal volume of water was given to blank group of mice. 2 hours later, blood was collected from orbital vein of each group of mice for the separation of serum, and concentration of triglyceride in the serum was measured; (2) inhibitory activity of the individual compounds separated from the extract of Glechoma longituba (Nakai) Kupr., LQC-H-1, against diacylglycerol acyltransferase (DGAT): human derived DGAT1 obtained by expression and purification with insect cells were pre-incubated together with the compounds, substrate diacylglycerol was added to initiate the reaction in the presence of coenzyme A, fluorescence signal generated by the combination of produced sulfydryl and CPM was measured, and the inhibitory activity of the compound against DGAT was calculated according to the following formula: Inhibition rate %=(OD blank−OD compound)/(OD blank−OD negative control)*100%
# OD compound, OD blank, and OD negative control represented the fluorescence values from a compound well, a blank well, and a negative control well free of DGAT1 enzyme, and the concentrations of the compounds when the enzyme activity inhibition rate (%) reached 50% were set as IC50 value; (3) inhibitory activity of the individual compounds separated from the extract of Glechoma longituba (Nakai) Kupr., LQC-H-1, against pancrelipase: substrate p-Nitrophenyl acetate (Sigma, USA) was formulated to 1.35 mM with phosphate buffer (25 mM, pH 6.8); porcine pancrelipase (Sigma) was formulated to 10 mg/ml with phosphate buffer; brominated eneyne compounds were formulated to solutions of different concentrations with phosphate buffer. Then, 50 μl of 1.35 mM p-Nitrophenyl acetate (Sigma, USA) solution and 10 μl of test compounds of different concentrations were sequentially added into a 96-well plate and pre-incubated at 37° C. for 5 mins. Finally, 50 μl of 10 mg/ml pancrelipase (EC 3.1.1.3, Sigma, USA) was added and mixed. The reaction proceeded at 37° C. for further 20 mins Absorbance of each well was measured at 492 nm. The inhibition rates (%) of the test samples against pancrelipase were calculated based on the absorbance at 492 nm. The concentrations of the compounds when then enzyme activity inhibition rate (%) reached 50% was set as IC50 value. The inhibition rate (%) could be calculated according to the following formula: Inhibition rate (%)=[(A−B)−(C−D)]/(A−B)×100
# T1 sequence (P27487 whole entry): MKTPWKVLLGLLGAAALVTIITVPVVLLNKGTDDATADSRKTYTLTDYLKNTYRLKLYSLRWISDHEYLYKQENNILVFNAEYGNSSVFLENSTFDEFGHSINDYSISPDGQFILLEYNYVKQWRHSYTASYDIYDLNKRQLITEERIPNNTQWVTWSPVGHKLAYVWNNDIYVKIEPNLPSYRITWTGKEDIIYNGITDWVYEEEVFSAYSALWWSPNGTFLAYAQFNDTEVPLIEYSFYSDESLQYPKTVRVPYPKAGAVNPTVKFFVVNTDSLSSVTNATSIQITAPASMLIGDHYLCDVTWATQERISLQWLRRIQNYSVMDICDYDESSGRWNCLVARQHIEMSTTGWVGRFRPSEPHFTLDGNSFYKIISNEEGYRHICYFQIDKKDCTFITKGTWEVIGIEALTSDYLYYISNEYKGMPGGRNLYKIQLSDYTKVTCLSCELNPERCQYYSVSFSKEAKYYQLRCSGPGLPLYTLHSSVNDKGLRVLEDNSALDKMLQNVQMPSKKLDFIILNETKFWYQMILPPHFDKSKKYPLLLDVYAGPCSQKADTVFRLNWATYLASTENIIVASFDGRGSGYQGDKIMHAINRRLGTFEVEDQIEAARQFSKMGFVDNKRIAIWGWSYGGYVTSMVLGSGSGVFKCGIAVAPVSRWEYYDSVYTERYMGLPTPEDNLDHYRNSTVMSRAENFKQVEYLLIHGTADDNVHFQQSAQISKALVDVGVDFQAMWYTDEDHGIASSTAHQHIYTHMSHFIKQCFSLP
inhibition rate against DDP4 (DDP4 enzyme) [%],inhibition at 100 µM (DDP4 enzyme) [%],inhibition at 10 µM (hDGAT1) [%],inhibition at 50 µM (hDGAT1) [%],SMILES
34.1,34.1 ± 3.91,~20,> 50,"O=C(O)C1O[C@@H](OC2C(O)[C@H](O)C(C(=O)O)O[C@H]2Oc2cc(O)c3c(=O)cc(-c4ccc(O)cc4)oc3c2)C(O)C(O)[C@@H]1O (stereo partly drawn) [Compound II, apigenin-7-O-[β-glucuronosyl(1→2)β-glucuronic acid]]"
40.8,40.8 ± 3.26,~20,> 50,"O=C(O)C1O[C@@H](OC2C(O)[C@H](O)C(C(=O)O)O[C@H]2Oc2cc(O)c3c(=O)cc(-c4ccc(O)c(O)c4)oc3c2)C(O)C(O)[C@@H]1O (stereo partly drawn) [Compound I, luteolin-7-O-[β-glucuronosyl(1→2)β-glucuronic acid]]"
